The target in assay [1] is T1, N-type Ca^2+ channel in IMR-32 cells (Homo sapiens, UniProt Q00975).
T1 construct: host or cells: IMR-32 (differentiated with dibutyryl cAMP and bromodeoxyuridine)
Briefly: N-type Ca2+ channel blockade in IMR-32 cells (fluorescent Ca2+ indicator Indo-1). The class given is cell-based. The conditions noted are these: 5 μM nitrendipine present; for inhibition at 1 µM: IMR-32, 1 μM; for inhibition at 10 µM: IMR-32, 10 μM.

The test system of assay [2] is DBA/2 mice. Briefly: Audiogenic seizure (anticonvulsant) test in DBA/2 mice. The format is in vivo. The conditions noted are these: Mus musculus, intravenous, read-out: DBA/2 mice % Protection. Here is the method:
A compound of the present invention was dissolved in water using 10% (weight/volume) Emulphor (GAF Corp., Wayne, N.J.) surfactant. Substances were administered by intravenous injection into the retro-orbital venous sinus. All testing was performed fifteen minutes or forty-five minutes after drug injection. All the male mice, 3-4 weeks old were obtained from Jackson Laboratories Bar Harbour, Me. Immediately before anticonvulsant testing, mice were placed upon a wire mesh, four inches square suspended from a steel rod. The square was slowly inserted through 180 degree and mice observed for thirty seconds. Any mouse falling from the wire mesh was scored as ataxia.
Mice were placed into an enclosed acrylic plastic chamber (21 cm height, approximately 30 cm diameter) with a high-frequency speaker (4 cm diameter) in the center of the top lid. An audio signal generator (Protek model B-810) was used to produe a continuous sinusoidal tone that was swept linearly in frequency between 8 kHz and 16 kHz once each 10 msec. The average sound pressure level (SPL) during stimulation was approximately 100 dB at the floor of the chamber. Mice were placed within the chamber and allowed to acclimatize for one minute. DBA/2 mice in the vehicle-treated group responded to the sound stimulus (applied until tonic extension occurred, or for a maximum of sixty seconds) with a characteristic seizure sequence consisting of wild running followed by clonic seizures and later by tonic extension, and finally by respiratory arrest and death in 80% or more of the mice. In vehicle-treated mice, the entire sequence of seizures to respiratory arrest lasts approximately 15-20 seconds.
The incidence of all the seizure phases in the drug-treated and vehicle-treated mice was recorded, and the occurrence of tonic seizures were used for calculating anticonvulsant ED50 values by probit analysis. Mice were used only once for testing at each time and dose point.

Assay [3] relates to male Swiss-Webster mice. Briefly: Anti-Writhing Test in Mice (AW), acetic acid. The class given is in vivo. An excerpt:
Anti-Writhing Test in Mice (AW) Test Protocol
The purpose of this test is to evaluate drugs for analgesic-like activity. The AW test determines the effect of drugs on the response to a presumed painful stimulus in mice and is used as a preliminary in vivo procedure for the identification of potential analgesic agents.
Known analgesics with low, moderate, or high efficacy in man allow mice to tolerate intra-peritoneal administration of dilute acetic acid as evidenced by lesser incidence of writhing movements. The AW test measures the nociceptive response to acetic acid in mice and provides an objective, reliable, and quantitative estimate of efficacy and potency of potential analgesic compounds. […]
Compounds are dissolved or suspended in physiological saline containing 2% Emulphor. […] Drug doses are expressed as the active moiety and are normally administered to mice (10, 30, and 100 mg/kg IP, SC, PO, or IM) in a volume of 10 mL/kg, 1 hour prior to testing; ICV doses (in μg/kg) are administered in a volume of 0.5 mL/kg, 5 minutes prior to testing. […]
Mice are treated with a dilute solution of acetic acid (0.6%, 10 mL/kg IP) which elicits writhing. […] Writhing movements (abdominal contractions, stretching of the torso and hind legs, and concave arching of the back) are counted for 5 minutes commencing 7 minutes after acetic acid administration. […]
On the technique in general: Writhing tests count abdominal constrictions after an irritant is injected.

The subject of assay [4] is models of ischemia and pain. As to conditions: Bowersox et al. 1994; cited from earlier work.
The subject of assay [5] is N-type calcium channel. As to conditions: Bowersox et al. 1994; cited from earlier work.

The values below come from patent US6251919A, “Heterocyclic substituted aniline calcium channel blockers” (Warner-Lambert, priority 1999, dated 2001).

pIC50: −log10 of the molar value. Like-named read-outs stand apart in the source and are kept apart here. Bridges are numbered along the chain shown (N, C = ends). Where no end group is shown, it is not given here.

T1 sequence (Q00975 whole entry): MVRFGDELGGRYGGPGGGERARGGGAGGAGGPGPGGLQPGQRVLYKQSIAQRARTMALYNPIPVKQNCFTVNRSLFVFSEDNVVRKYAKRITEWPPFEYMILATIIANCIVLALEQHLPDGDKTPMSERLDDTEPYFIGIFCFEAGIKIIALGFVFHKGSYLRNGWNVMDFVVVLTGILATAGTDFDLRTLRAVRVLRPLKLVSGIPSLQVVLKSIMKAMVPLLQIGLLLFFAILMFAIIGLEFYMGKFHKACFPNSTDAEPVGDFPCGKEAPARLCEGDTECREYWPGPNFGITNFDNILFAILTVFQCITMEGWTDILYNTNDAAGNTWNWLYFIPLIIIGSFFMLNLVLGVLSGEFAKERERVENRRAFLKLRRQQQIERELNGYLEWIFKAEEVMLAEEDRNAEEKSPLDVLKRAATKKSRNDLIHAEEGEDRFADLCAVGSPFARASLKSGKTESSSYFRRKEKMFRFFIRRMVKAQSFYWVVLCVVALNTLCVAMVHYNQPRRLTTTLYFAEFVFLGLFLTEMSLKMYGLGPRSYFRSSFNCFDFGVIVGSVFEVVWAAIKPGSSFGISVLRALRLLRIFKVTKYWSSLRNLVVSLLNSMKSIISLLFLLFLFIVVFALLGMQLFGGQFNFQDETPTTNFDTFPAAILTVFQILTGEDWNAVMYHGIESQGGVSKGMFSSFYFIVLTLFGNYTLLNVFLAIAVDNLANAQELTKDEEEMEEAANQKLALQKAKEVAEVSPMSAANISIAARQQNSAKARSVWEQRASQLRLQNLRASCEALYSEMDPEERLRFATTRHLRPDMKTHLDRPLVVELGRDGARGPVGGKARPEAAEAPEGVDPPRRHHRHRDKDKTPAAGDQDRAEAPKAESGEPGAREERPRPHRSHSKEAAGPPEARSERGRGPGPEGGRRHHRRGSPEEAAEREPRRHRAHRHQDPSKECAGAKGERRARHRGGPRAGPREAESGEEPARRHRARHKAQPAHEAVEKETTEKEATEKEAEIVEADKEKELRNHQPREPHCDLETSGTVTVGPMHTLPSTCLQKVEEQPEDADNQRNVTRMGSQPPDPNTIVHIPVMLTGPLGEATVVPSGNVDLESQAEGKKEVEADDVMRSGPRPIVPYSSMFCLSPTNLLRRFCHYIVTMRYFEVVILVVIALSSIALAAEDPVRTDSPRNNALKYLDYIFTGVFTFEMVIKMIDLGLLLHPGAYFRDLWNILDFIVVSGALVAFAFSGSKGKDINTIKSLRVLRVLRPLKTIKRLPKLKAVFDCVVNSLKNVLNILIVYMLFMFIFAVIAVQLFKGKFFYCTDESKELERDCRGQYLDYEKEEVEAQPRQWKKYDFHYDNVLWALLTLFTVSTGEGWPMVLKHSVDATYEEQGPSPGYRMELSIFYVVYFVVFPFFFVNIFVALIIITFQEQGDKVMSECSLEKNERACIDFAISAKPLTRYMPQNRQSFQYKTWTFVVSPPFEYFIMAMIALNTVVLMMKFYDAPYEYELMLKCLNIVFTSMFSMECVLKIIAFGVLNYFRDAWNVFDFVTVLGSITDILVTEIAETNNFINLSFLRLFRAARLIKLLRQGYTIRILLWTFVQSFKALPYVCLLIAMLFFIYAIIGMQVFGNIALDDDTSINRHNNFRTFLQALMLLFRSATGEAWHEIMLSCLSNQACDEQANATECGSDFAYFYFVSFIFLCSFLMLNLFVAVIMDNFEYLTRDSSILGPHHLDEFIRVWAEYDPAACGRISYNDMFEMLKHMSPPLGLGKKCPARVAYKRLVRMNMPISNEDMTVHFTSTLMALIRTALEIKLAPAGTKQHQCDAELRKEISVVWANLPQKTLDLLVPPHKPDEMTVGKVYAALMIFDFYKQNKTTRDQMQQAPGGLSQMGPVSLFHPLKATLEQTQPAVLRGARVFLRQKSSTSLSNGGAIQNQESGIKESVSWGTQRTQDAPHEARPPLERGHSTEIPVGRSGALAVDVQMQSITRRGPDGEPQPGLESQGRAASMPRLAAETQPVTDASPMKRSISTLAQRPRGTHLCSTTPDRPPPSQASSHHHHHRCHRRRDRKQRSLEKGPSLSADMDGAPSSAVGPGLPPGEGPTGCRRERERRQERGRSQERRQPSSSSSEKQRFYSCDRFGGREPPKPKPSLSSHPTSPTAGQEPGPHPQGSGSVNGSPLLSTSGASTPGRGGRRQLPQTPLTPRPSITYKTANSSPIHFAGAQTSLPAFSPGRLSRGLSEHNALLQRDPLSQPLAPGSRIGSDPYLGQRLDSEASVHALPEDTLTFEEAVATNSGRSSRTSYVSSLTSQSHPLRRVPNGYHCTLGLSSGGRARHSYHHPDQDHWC

Consider `CC(C)=CCN(c1ccc(OCc2ccccc2)cc1)C1CCN(Cc2c[nH]cn2)CC1` [Example 8, (4-Benzyloxy-phenyl)-[1(1H-imidazol-4-ylmethyl)-piperidin-4-yl]-(3-methyl-but-2-enyl)-amine], for which, in assay [1], the inhibition (usually the relative decrease from the control value, in per cent) at 1 µM was determined as 16% and the inhibition at 10 µM turned out to be 71%. Besides, the responders at 10 mg/kg in assay [2] amounted to 60%.
Turning to `CC(C)=CCN(c1ccc(OCc2ccccc2)cc1)C1CCN(CCC(C)(C)C)CC1` [Example 2, (4-Benzyloxy-phenyl)-[1-(3,3-dimethyl-butyl)-piperidin-4-yl]-(3-methyl-but-2-enyl)-amine], in assay [1], the inhibition at 1 µM amounted to 62% and the inhibition at 10 µM was found to be 93%. The responders at 10 mg/kg in assay [2] amounted to 80%.
In the case of `CC(C)=CCN(c1ccc(OCc2ccccc2)cc1)C1CCN(CCC(C)O)CC1` (centres unmarked) [Example 20, 4-{4-[(4-Benzyloxy-phenyl)-(3-methyl-but-2-enyl)-aminol]-piperidin-1-yl}-butan-2-ol], the pIC50 (as a rule, the IC50 on a negative log10 scale, so that one unit is a factor of ten) in assay [1] is 5.52. For the same molecule, in assay [2], the responders at 10 mg/kg amounted to 40%.
On to `CC(C)=CCN(c1ccc(OCc2ccccc2)cc1)C1CCN(Cc2ccc[nH]2)CC1` [Example 7, (4-Benzyloxy-phenyl)-(3-methyl-but-2-enyl)-[1-(1H-pyrrol-2-ylmethyl)-piperidin-4-yl]-amine], for which the responders at 10 mg/kg in assay [2] was 100%. Moreover, the responders at 30 mg/kg in assay [2] (30 mg/kg) amounted to 100%.
For `CC(C)=CCN(c1ccc(OCc2ccccc2)cc1)C1CCN(Cc2ccccc2)CC1` [Example 19, (4-Benzyloxy-phenyl)-(1-benzyl-piperidin4-yl)-(3-methyl-but-2-enyl)-amine], in assay [1], the pIC50 is 6.14. In assay [2], the responders at 10 mg/kg turned out to be 80%.
Turning to `CC(C)=CCN(c1ccc(OCc2ccccc2)cc1)C1CCN(Cc2ccc(N(C)C)cc2)CC1` [Example 6, (4-Benzyloxy-phenyl)-[1-(4-dimethylamino-benzyl)-piperidin-4-yl]-(3-methyl-but-2-enyl)-amine], in assay [2], the responders at 10 mg/kg is 100%. For the same molecule, in assay [2] (30 mg/kg), the responders at 30 mg/kg was 100%.
Regarding `CC(C)=CCN(c1ccc(OCc2ccccc2)cc1)C1CCN(CCC(C)C)CC1` [Example 1, (4-Benzyloxy-phenyl)-(3-methyl-but-2-enyl)-[1-(3-methyl-butyl)-piperidin-4-yl]-amine], in assay [1], the inhibition at 1 µM is 40% and the inhibition at 10 µM was 79%. In assay [2] (30 mg/kg), the responders at 30 mg/kg was determined as 100%.
On to `CC(C)=CCN(c1ccc(OCc2ccccc2)cc1)C1CCN(C(=O)[C@@H](O)CC(C)C)CC1` [Example 44, (S)-1-{4-[(4-Benzyloxy-phenyl)-(3-methyl-but-2-enyl)-amino]-piperidin-1-yl}-2-hydroxy-4-methyl-pentan-1-one], for which the “Anti-Writhing % Protection” value in assay [3] (10 mg/kg) is on record as 30%. In assay [3] (30 mg/kg), the “Anti-Writhing % Protection” value is given as 100%. In addition, in assay [1], the inhibition at 1 µM came out at 64% and the inhibition at 10 µM was determined as 107%. In addition, in assay [2] (30 mg/kg), the responders at 30 mg/kg is 100%.
“SNX-111: selective N-type calcium channel blocker (CKGKGAKCSRLMYDCCTGSCRSGKC-NH2; disulfide 1-16, 15-25, 8-20; UniProt P05484 46-70, looked up)”: the “activity in models of ischemia and pain” value in assay [4] was “demonstrated activity in a number of models of ischemia and pain”. The “N-type calcium channel blockade selectivity” value in assay [5] is reported as “selective N-type calcium channel blocker”.
For the molecule `CC(C)=CCN(c1ccc(OCc2ccccc2)cc1)C1CCN(C(=O)C2CN(C(C)C)CCN2CCC(C)C)CC1` (centres unmarked) [Example 15, {4-[(4-Benzyloxy-phenyl)-(3-methyl-but-2-enyl)-amino]-piperidin-1-yl}-[4-isopropyl-1-(3-methyl-butyl)-piperazin-2-yl]-methanone], in assay [1], the inhibition at 1 µM was 51% and the inhibition at 10 µM was 92%. Further, in assay [2] (0.75 h, 30 mg/kg (45 min)), the responders at 30 mg/kg was 100%. In assay [2], the responders at 10 mg/kg was 20%.
For the molecule `CC(C)=CCN(c1ccc(OCc2ccccc2)cc1)C1CCN(Cc2ccc(O)cc2)CC1` [Example 5, 4-{4-[(4-Benzyloxy-phenyl)-(3-methyl-but-2-enyl)-amino]-piperidin-1-ylmethyl}-phenol], in assay [1], the inhibition at 1 µM worked out at 47% and the inhibition at 10 µM worked out at 100%. In addition, the responders at 10 mg/kg in assay [2] was determined as 80%.
For `CC(C)=CCN(c1ccc(OCc2ccccc2)cc1)C1CCN(C2CCOCC2)CC1` [Example 10, (4-Benyloxy-phenyl)-(3-methyl-but-2-enyl)-[1-(tetrahydro-pyran4-yl)-piperidin-4-yl]-amine], in assay [1], the inhibition at 1 µM was 15% and the inhibition at 10 µM stood at 62%.
Taken in the same sequence, the figures for `CC(C)=CCN(c1ccc(OCc2ccccc2)cc1)C1CCN(Cc2ccccn2)CC1` [Example 9, (4-Benzyloxy-phenyl)-(3-methyl-but-2-enyl)-(1-pyridin-2-ylmethyl-piperidin-4-yl)-amine] were 30% and 100%.
